Reference: patent publication US20070037238A1, “Composition for suppressing PQQGDH reaction inhibition” (Toyo Boseki Kabushiki Kaisha, priority 2005, published 2007)

System: PQQGDH
Assay: Measurement with glucose electrodes
Assay type: biochemical
Details: 0.1 M potassium ferricyanide, D-glucose 5-40 mM, 25° C., +0.35 V
Description: 0.5 g of carbon graphite and 0.3 mL of fluid paraffin were ground well with a mortar and pestle to form a carbon paste. This carbon paste was spread on a platinum electrode, and 10 μL of PQQGDH solution (Toyo Boseki GLD-331, 2,000 U/mL) was placed thereon and air-dried for 30 minutes at room temperature. This electrode was covered with a semipermeable cellulose membrane (molecular weight cut-off 8.000), and the semipermeable membrane was fixed with an O-ring to prepare a glucose electrode. This glucose electrode was used after having been soaked for 30 minutes or more in the buffer used for measurement. […] After about 5 minutes when the response current was confirmed to have stabilized, a D-glucose solution was added and the rise in the response current was monitored. […] The theoretical values here are the response value at each concentration calculated based on measurement values at 5 mM, assuming that the D-glucose amount and measurement value are proportional, and these are given as straight lines in the figures. The response values were more linear when pimelic acid and succinic acid were added in comparison to the solution of phosphoric acid and glutaric acid alone, and the actual measured response values at glucose concentrations of 30 mM or more are particularly close to the corresponding theoretical values.

SMILES | linearity of glucose electrode response values versus D-glucose concentration (1% pimelic acid in 50 mM potassium phosphate buffer pH 7.0 (Buffer B vs Buffer A)) | linearity of glucose electrode response values versus D-glucose concentration (1% succinic acid in 50 mM glutaric acid pH 7.0 (Buffer D vs Buffer C))
O=C(O)CCCCCC(=O)O [pimelic acid] | more linear | –
O=C(O)CCC(=O)O [succinic acid] | – | more linear
